Laboratory results reported in ChEMBL document CHEMBL1147257, “New cytotoxic steroidal alkaloids from the Philippine sponge Corticium niger” (J Nat Prod, 2003).
pIC50: −log10 of the molar value.

Tested on: HCT-116
Assay: Cytotoxicity against human HCT116 cells after 72 hrs by MTS/PMS bioreduction assay
Type: functional, cell-based
Conditions: HCT-116, 72 h

Compound	pIC50
CN[C@@H]1CC[C@]2(C)[C@H]3CC[C@]4(C)[C@@H]([C@H](C)CC5NCCC5C(C)C)CC[C@H]4C3=CC[C@H]2[C@H]1OC(C)=O (some centres undefined)	5.85
CC(C)=C1CCN2[C@@H]1C[C@@H](C)[C@H]1[C@@H]2C[C@H]2C3=CC[C@H]4C[C@H](N(C)C)CC[C@]4(C)[C@H]3CC[C@]12C [PLAKINAMINE I]	4.97
CC(C)C1CCN(C)C1C[C@@H](C)[C@H]1CC[C@H]2C3=CC[C@H]4[C@H](N)C=CC[C@]4(C)[C@H]3CC[C@]12C (some centres undefined) [PLAKINAMINE J]	5.21
CN[C@@H]1CC[C@]2(C)[C@H]3CC[C@]4(C)[C@@H]([C@H](C)CC5NCCC5=C(C)C)CC[C@H]4C3=CC[C@H]2[C@H]1OC(C)=O (some centres undefined) [PLAKINAMINE K]	5.85
